From BindingDB's records for PubMed 2795135 (Stanford University, 1989) come the findings set out here.

Assay [1] has as its target 5-hydroxytryptamine receptor 2A (Rattus norvegicus, UniProt P14842).
Assay [2] deals with 5-hydroxytryptamine receptor 2B (Bos taurus, UniProt Q8MI09).

Several values for one entry are separate records, joined by “and”; a condition that tells them apart may be missing. Equal entries are not always repeated.

Chain of 5-hydroxytryptamine receptor 2B (Q8MI09 whole entry): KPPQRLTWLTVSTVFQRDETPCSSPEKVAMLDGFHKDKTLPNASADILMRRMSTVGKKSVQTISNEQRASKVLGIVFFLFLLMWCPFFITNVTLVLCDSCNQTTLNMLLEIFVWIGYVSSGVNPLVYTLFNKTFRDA
Chain of 5-hydroxytryptamine receptor 2A (P14842 whole entry): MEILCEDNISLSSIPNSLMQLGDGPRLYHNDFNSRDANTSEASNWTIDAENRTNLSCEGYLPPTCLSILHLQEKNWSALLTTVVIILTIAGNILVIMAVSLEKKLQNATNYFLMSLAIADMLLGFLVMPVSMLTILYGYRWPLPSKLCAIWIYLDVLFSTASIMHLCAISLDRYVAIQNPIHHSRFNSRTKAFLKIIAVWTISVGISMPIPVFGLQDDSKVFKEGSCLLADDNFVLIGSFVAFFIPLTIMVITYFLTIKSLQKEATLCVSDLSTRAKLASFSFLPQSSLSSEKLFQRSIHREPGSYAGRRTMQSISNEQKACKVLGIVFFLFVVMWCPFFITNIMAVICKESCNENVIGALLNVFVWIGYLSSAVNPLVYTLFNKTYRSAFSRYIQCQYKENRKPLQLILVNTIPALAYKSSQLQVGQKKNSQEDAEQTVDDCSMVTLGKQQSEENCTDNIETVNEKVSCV

Turning to `CCCN(CCC)C1CCc2cccc(O)c2C1` (stereo not drawn), the Ki in assay [1] came to 700 nM; in assay [2], 5400 nM.

Regarding `CN1C2CCC1CC(OC(=O)c1c[nH]c3ccccc13)C2` (stereo not drawn), the values for the Ki in assay [1] and in assay [2] were greater than 10000 nM and 2600 nM, respectively.

The compound `CCc1cc(OC)c(CC(C)N)cc1OC` (stereo not drawn) showed a Ki in assay [2] of 80 nM. This lies in the double-digit nanomolar range. Take `NCCc1c[nH]c2ccccc12` [1H-indole-3-ethanamine]: the Ki in assay [1] came out at 11 nM; in assay [2] it was 1300 nM. On the same counts, the results for `CN(C)CCc1c[nH]c2ccccc12` [2-(1H-indol-3-yl)-N,N-dimethylethanamine] are 42 nM and 550 nM. On the same counts, the results for `c1ccc2nc(N3CCNCC3)ccc2c1` [2-Piperazin-1-yl-quinoline (Quipazine)] are 5 nM and 460 nM. For `COc1cc(CCN)cc(OC)c1OC` [3,4,5-trimethoxyphenylethylamine] the same measures were 150 nM and greater than 10000 nM. As to `COc1ccc2[nH]cc(CCN(C)C)c2c1` [3-(2-DIMETHYLAMINOETHYL)-5-METHOXYINDOLE], the results for the Ki in assay [1] and in assay [2] were 14 nM and 1300 nM, respectively. In the case of `O=C(c1ccc(F)cc1)C1CCN(CCn2c(=O)[nH]c3ccccc3c2=O)CC1` [3-(2-{4-[(4-fluorophenyl)carbonyl]piperidin-1-yl}ethyl)-1,2,3,4-tetrahydroquinazoline-2,4-dione], the Ki in assay [2] came to 2.4 nM.

For the compound `CN(C)CCc1c[nH]c2cccc(O)c12` [4-hydroxy-N,N-dimethyltryptamine], the Ki in assay [1] is 12 nM; in assay [2], 450 nM. `COc1ccc2[nH]cc(C3=CCNCC3)c2c1` [5-Methoxy-3-(1,2,3,6-tetrahydro-pyridin-4-yl)-1H-indole(RU-24969)] registered a Ki in assay [2] of 1200 nM. Still for that read-out and setting: in the case of `CCN(CC)C(=O)[C@@H]1C=C2c3cccc4[nH]cc(c34)C[C@H]2N(C)C1` [(4R,7R)-N,N-diethyl-6-methyl-6,11-diazatetracyclo[7.6.1.0^{2,7}.0^{12,16}]hexadeca-1(16),2,9,12,14-pentaene-4-carboxamide] it was 11 nM. On to `COc1cc(CC(C)N)c(OC)cc1C` (stereo not drawn) [(+/-)2-(2,5-Dimethoxy-4-methyl-phenyl)-1-methyl-ethylamine], for which the Ki was 4.8 nM in assay [1] and 400 nM in assay [2]. For `CN(C)CCCSc1ccccc1NC(=O)/C=C/c1ccccc1` [CINANSERIN] the same measures were 7 nM and 5 nM. For `CN1C[C@@H](NS(=O)(=O)N(C)C)C[C@@H]2c3cccc4c3c(cn4C)C[C@H]21` [MESULERGINE], the affinity in assay [2] corresponds to a Ki of 8 nM. `CN(C)CCCN1c2ccccc2Sc2ccc(Cl)cc21` [[3-(2-Chloro-phenothiazin-10-yl)-propyl]-dimethyl-amine(Chlorpromazine)] had a Ki in assay [2] of 6 nM. The same measure, in the same setting: for `NCCc1c[nH]c2ccc(C(N)=O)cc12` [[3H]-5-carboxamidotryptamine] the value was greater than 10000 nM.

In the case of `COc1cc(CC(C)N)c(OC)cc1I` (stereo not drawn) [[125I]2,5-dimethoxy-4-iodoamphetamine], the Ki in assay [1] was 0.89 nM and 0.53 nM; in assay [2], 100 nM and 55 nM. Turning to `Clc1cccc(N2CCNCC2)c1` [mCPP], the Ki in assay [1] worked out at 21 nM; in assay [2] it was 960 nM. On the same counts, the results for `CN(C)CCc1c[nH]c2cccc(OP(=O)(O)O)c12` [psilocybin] are 13 nM and 600 nM.
